Data as given in US7763596B2, “Selective glucocorticoid receptor agonists” (The University of Manchester, priority 2000, dated 2010).

Tests used:
progesterone receptor = molecular target: T1, progesterone receptor (Homo sapiens, UniProt P06401); test: Classic receptor binding assay, progesterone receptor (data not shown)
T1 sequence (P06401 1-933): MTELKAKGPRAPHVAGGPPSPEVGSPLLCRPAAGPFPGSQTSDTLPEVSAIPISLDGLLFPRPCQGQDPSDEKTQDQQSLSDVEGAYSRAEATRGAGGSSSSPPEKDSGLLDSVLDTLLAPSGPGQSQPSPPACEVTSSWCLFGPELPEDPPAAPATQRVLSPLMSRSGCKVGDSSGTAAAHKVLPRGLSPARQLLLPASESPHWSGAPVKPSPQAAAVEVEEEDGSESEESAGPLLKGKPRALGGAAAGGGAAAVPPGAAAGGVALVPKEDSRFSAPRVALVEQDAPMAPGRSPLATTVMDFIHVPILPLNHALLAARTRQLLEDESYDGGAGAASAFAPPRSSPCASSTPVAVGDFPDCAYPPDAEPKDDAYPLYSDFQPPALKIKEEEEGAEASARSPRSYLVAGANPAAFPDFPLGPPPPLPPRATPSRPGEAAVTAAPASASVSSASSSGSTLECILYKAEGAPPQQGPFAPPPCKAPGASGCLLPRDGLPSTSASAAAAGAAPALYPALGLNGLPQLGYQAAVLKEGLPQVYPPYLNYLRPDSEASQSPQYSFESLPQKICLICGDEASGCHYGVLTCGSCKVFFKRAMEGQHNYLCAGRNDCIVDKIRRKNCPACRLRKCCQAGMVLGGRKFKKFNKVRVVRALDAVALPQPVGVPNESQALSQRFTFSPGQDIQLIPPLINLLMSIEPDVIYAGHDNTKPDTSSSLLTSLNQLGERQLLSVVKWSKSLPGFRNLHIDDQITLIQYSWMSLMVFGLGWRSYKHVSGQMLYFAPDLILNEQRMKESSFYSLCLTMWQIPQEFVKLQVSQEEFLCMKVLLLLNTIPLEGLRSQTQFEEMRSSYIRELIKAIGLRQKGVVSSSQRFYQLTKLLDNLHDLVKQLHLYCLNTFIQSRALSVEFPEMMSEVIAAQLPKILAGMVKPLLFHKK

[1] = system: zymosan induced neutrophil migration; test: Air pouch model of inflammation, zymosan induced neutrophil migration; assay type: in vivo, mice
Method: Male outbred Swiss albino mice (18-20 g body weight) were purchased from Bantin and Kingman (T.O. strain; Hull, Humberside) and maintained on a standard chow pellet diet with tap water ad libitum and a 12:00 h light/dark cycle. All animals were housed for 3 days prior to experimentation to allow body weight to reach 20-22 g. On the day of experiment mice ranged from 24-26 g.
Air-pouches were formed on the back of mice by air injection (2.5 ml s.c.) on day 0 and day 3 (Perretti and Flower, 1993).
Zymosan A was allowed to defrost at room temperature for 30 min prior to being added to sterile PBS at a concentration of 2 mg/ml forming a homogenous suspension.
At time 0, mice received either 0.5 ml of zymosan (1 mg) (group A, B, C) injected locally into the air-pouch. Group D and E were left untreated at this time-point. At 4 h post-zymosan the animals were placed in CO2. Air-pouches were then washed with 2 ml of PBS containing 3 mM EDTA, and livers were recovered and snap frozen for later analysis.
The number of migrated leukocytes (≧90% polymorphonuclear leukocytes, PMN) was determined in the lavage fluid from each air-pouch, by taking an aliquot (100 μl) of the lavage fluid and diluting 1:10 in Turk's solution (0.01% crystal violet in 3% acetic acid). The samples were then vortexed and 10 μl of the stained cell solution were placed in a Neubauer haematocymometer and neutrophils numbers counted using a light microscope (Olympus B061).
Neutrophil numbers were compared between groups using ANOVA plus the Bonferroni test. TAT levels were compared using a t-test.

binding to the progesterone receptor (progesterone receptor): not to bind to the progesterone receptor
Compound: CCCNC(=O)C1(O)C(C)CC2C3CCC4=CC(=O)C=CC4(C)C3(F)C(O)CC21C (stereo not drawn) [Compound G]
Neutrophils (10^6 per mouse) ([1]; 3 μg i.p. at -1 h, Zymosan 1 mg into air-pouch, 4 h time-point, mean ± S.E. of 8 mice): 6.33 ± 0.79 * 10^6 per mouse
reduction of neutrophil accumulation ([1]; 3 μg i.p., zymosan air pouch, 4 h): ~30%
